Laboratory results taken from US20260306527A1, “PRMT INHIBITOR COMPOUNDS AND THE USES THEREOF” (Purdue Research Foundation, priority 2023, published 2026).
“Also recorded” adds a separate entry of the source. Blank lines part the entries; values can stand above or below the molecule they belong to.

What was measured:
PRMT4/5 = test: inhibition of PRMT4/5 (figure legend); assay type: biochemical
PRMT 5/7 = conditions: cited from earlier work
PRMT8 = PRMT8 (Homo sapiens, UniProt Q9NR22); test: radioactive assay (Reaction Biology Corp.), inhibition of PRMT8; assay type: biochemical
Procedure: (§1) Next, the inhibition activity of the library was investigated for five PRMT members from type I PRMTs.
(§2) The PRMT 4, 6 and 8 methylation assays were performed by Reaction Biology corp.

PRMT4/7 = conditions: previously reported; cited from earlier work
PRMT1 [1] = target: T1, PRMT1 (Homo sapiens, UniProt Q99873); test: SAHH-coupled fluorescence assay, inhibition of PRMT1; assay type: biochemical
T1 construct: made in house
How it was run: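 PRMT1 (0.1 μM) was run with 10 μM AdoMet, 5 μM SAHH and 10 μM ThioGlo4 in 2.5 mM HEPES pH 7.0, 25 mM NaCl, 25 μM EDTA, 50 μM TCEP and 0.01% Triton X-100. Fluorescence (ex 400/em 465 nm) was monitored for 15 min. Assays were done in duplicate.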

PRMT4 [2] = target: T2, PRMT4 (Homo sapiens, UniProt Q86X55); test: radioactive assay (Reaction Biology Corp.), inhibition of PRMT4; assay type: biochemical
T2 sequence (Q86X55 1-608): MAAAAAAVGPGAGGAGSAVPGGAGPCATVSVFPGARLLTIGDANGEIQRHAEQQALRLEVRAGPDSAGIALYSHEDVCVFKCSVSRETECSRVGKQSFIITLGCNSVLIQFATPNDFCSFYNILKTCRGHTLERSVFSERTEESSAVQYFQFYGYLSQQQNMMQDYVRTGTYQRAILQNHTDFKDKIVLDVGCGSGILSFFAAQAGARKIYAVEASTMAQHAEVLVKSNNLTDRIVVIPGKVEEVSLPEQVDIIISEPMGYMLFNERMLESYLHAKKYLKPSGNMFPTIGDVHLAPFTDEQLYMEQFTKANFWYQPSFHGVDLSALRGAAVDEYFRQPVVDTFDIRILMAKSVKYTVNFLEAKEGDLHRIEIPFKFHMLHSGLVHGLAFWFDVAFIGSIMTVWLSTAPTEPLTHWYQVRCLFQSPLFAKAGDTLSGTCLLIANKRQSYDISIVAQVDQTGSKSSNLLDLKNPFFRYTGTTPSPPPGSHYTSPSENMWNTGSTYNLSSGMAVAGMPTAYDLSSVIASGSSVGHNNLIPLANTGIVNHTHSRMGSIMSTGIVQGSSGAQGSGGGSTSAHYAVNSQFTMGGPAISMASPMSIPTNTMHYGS
Procedure: as §1, §2

PRMT6 = PRMT6 (Homo sapiens, UniProt Q96LA8); test: radioactive assay (Reaction Biology Corp.), inhibition of PRMT6; assay type: biochemical
Procedure: as §1, §2

PRMT3 [3] = target: T3, PRMT3 (Homo sapiens, UniProt O60678); test: SAHH-coupled fluorescence assay, inhibition of PRMT3; assay type: biochemical; design: PRMT3 (residues 211-531) was cloned into the pET28a-MHL expression vector; tag of the pET28a-MHL vector (not described); made in house; host or cells: Escherichia coli BL21(DE3)
How it was run: (§3)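 Coupled SAHH/ThioGlo4 fluorescence read-out (ex 380 nm, em 505 nm) of PRMT3 (0.25 μM) methylation with 30 μM AdoMet and 5 μM SAHH. Buffer was 20 mM Tris pH 7.5 with 0.01% Triton X-100. Run in duplicate.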

PRMT7 [4] = target: PRMT7 (Homo sapiens, UniProt Q9NVM4); conditions: cited from earlier work
DOT1L = conditions: cited from earlier work
PRMT3 [5] = test: selectivity of YD1113/YD1290 on PRMT panel, PRMT3; assay type: biochemical
Procedure: (§4) The selectivity of compounds YD1113 and YD1290 on PRMTs were performed by Reaction Biology Corp.
(§5) Next, the selectivity of YD1113 was investigated on a panel of PRMTs at 10 μM.
(§6) After validating the benzyl urea moiety as an unconventional homocysteine mimic of SAH for PRMTs, it was hypothesized that incorporating the benzyl urea moiety into the original pan PRMT inhibitor II757 would build a potent bisubstrate inhibitor. […] To enable a stable tri-substitution, the sulfur atom with a nitrogen atom was replaced. YD1290 was synthesized following the reported methods 9, 15 and tested in a radioactivity assay for PRMTs (FIG. 6b).

PRMT3 [6] = test: SAHH-coupled fluorescence assay, inhibition of PRMT3; assay type: biochemical; conditions: read-out: IC50[μM] | PRMT3
How it was run: as §3

PRMTs = conditions: cited from earlier work
PRMT4 [7] = test: selectivity of YD1113/YD1290 on PRMT panel, PRMT4; assay type: biochemical
Procedure: as §4, §5, §6

PRMT7 [8] = test: selectivity of YD1113 on PRMT panel, PRMT7; assay type: biochemical
Procedure: as §4, §5

PRMT1 [9] = target: T1, PRMT1; test: thermal shift assay PRMT1; assay type: binding; conditions: 100 μM compound, 10 μM protein
Procedure: (§7) The fluorescence-based thermal shift assay was performed using a StepOne plus qPCR instrument (Thermal Fisher). For PRMT1, 10 μM of protein was mixed with 2× sypro orange and DMSO, or 100 μM SAM, or 100 μM YD1113, or 100 μM YD1290 in a buffer consisting of 2.5 mM HEPES (pH=7.0), 25 mM NaCl, 25 μM EDTA, 50 μM TCEP, 0.01% Triton X-100. For PRMT3, 20 μM of protein was mixed with 2× sypro orange and DMSO, or 100 μM SAM, or 100 μM YD1113, or 100 μM YD1290 in a buffer consisting of 20 mM Tris (pH=7.5), 0.01% Triton X-100. For PRMT4, 20 μM of protein was mixed with 2× sypro orange and DMSO, or 100 μM SAM, or 100 μM YD1113, or 100 μM YD1290 in a buffer consisting of 20 mM bicine (pH=8.5), 0.01% Triton X-100. All samples were heated from 25° C. to 75° C. at an increased rate of 0.5° C. per minute. Protein denaturation was monitored by the increased fluorescence signal of Sypro Orange, which captures exposed hydrophobic residues during thermal unfolding. The recorded curves were analyzed by the software StepOne plus and plotted in GraphPad Prism 8 software.
(§8) Next, the thermal shift assay (TSA) was conducted as an orthogonal method to examine the effects of YD1290 on the thermal stability of PRMT1, 3, and 4 (Figure S1).

PRMT3 [10] = target: T3, PRMT3; test: thermal shift assay PRMT3; assay type: binding; design: PRMT3 (residues 211-531) was cloned into the pET28a-MHL expression vector; tag of the pET28a-MHL vector (not described); made in house; host or cells: Escherichia coli BL21(DE3); conditions: 100 μM compound, 20 μM protein
Procedure: as §7, §8

PRMT4 [11] = target: T4, PRMT4 (Homo sapiens, UniProt Q86X55); test: thermal shift assay PRMT4; assay type: binding; conditions: 100 μM compound, 20 μM protein
T4 construct: PRMT4 (residues 140-480) was cloned into the pFBOH-MHL vector; tag of the pFBOH-MHL vector (poly-His implied by Ni-NTA purification; not described); made in house; host or cells: Sf9 insect cells
Procedure: as §7, §8

PRMT7 (Homo sapiens, UniProt Q9NVM4), sequence (Q9NVM4 whole entry, species assumed): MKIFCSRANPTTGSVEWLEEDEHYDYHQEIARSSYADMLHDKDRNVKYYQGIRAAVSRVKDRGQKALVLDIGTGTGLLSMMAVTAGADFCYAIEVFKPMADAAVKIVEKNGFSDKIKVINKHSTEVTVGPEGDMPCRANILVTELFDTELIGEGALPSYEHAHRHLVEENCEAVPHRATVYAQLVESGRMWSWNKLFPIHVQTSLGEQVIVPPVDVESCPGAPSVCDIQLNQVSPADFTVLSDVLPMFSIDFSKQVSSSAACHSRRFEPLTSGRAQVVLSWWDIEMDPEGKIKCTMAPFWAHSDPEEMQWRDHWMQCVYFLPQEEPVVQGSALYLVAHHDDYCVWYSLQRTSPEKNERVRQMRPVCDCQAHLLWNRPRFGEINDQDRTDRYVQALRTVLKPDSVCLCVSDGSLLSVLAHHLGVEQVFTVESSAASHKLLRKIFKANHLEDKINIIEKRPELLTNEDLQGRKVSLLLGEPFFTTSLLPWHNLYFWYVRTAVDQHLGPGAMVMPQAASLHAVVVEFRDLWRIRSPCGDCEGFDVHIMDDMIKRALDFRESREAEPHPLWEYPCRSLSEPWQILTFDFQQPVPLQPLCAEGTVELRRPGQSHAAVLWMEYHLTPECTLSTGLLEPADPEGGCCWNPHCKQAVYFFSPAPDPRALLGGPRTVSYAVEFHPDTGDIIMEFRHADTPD
T1 sequence (Q99873 whole entry, species assumed): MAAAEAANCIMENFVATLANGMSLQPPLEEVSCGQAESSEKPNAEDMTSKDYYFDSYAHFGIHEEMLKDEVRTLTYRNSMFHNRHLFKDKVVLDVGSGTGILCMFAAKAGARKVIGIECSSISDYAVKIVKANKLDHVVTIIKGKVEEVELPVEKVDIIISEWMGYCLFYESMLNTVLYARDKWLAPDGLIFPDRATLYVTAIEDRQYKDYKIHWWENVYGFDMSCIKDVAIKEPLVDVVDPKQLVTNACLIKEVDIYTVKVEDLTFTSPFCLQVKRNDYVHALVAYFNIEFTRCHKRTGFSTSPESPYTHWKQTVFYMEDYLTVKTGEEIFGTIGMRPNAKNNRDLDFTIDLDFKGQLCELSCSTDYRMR
T3 sequence (O60678 211-531): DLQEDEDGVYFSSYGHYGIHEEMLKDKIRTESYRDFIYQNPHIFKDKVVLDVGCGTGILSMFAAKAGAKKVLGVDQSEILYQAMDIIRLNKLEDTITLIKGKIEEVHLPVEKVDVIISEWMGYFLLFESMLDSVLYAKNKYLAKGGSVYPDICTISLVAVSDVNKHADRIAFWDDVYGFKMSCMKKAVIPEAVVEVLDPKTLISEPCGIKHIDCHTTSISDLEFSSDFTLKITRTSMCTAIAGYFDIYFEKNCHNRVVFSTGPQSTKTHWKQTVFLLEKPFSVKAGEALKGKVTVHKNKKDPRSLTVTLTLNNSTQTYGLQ
PRMT8, sequence (Q9NR22 whole entry, species assumed): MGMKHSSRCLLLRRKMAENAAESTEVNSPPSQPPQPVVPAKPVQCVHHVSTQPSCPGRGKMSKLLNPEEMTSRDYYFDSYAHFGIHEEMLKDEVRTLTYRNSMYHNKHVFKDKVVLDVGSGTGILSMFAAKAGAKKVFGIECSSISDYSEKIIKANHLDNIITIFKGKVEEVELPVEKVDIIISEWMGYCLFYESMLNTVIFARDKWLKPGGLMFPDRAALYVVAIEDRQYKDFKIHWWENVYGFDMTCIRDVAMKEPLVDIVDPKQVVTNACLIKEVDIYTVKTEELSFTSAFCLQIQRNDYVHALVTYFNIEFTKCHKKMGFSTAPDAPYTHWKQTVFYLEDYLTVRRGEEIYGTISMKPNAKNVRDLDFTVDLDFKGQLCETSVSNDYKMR
PRMT6, sequence (Q96LA8 whole entry, species assumed): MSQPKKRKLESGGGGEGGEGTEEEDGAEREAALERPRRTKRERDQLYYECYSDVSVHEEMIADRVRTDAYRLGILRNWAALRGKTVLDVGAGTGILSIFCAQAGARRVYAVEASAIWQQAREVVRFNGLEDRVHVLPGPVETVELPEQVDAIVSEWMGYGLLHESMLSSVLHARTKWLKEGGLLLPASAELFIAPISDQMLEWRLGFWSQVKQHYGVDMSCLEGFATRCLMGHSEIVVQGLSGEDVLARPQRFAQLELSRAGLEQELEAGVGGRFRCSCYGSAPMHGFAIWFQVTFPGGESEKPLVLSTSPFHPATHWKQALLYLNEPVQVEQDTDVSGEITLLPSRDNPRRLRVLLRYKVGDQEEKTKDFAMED

SMILES: CC(CN(CCCN)C[C@H]1O[C@@H](n2cnc3c(N)ncnc32)[C@H](O)[C@@H]1O)NC(=O)NCc1ccccc1 (stereo partly shown) [YD1288]
PRMT4/5 inhibition (PRMT4/5): dual selective and potent PRMT4/5 inhibitor

SMILES: CCNC(=O)NCCSC[C@H]1O[C@@H](n2cnc3c(N)ncnc32)[C@H](O)[C@@H]1O [DS-437]
PRMT 5/7 inhibition (PRMT 5/7): dual inhibition to PRMT 5/7

inhibition at 10 µM (PRMT8): 73%
inhibition at 10 µM (PRMT1 [1]): 65%
inhibition at 10 µM (PRMT4 [2]): 99%
inhibition at 10 µM (PRMT6): 46%
inhibition at 10 µM (PRMT3 [3]): 22%
SMILES: Nc1ncnc2c1ncn2[C@@H]1O[C@H](CSCCCNCc2cccc(-c3ccc(Cl)cc3)c2)[C@@H](O)[C@H]1O [Compound 10m]
PRMT4/7 inhibition (PRMT4/7): potent PRMT4/7 inhibitor
PRMT4 inhibition (PRMT4 [2]): more potent PRMT4 inhibition activity than SGC8158

SMILES: Nc1ncnc2c1ncn2C1OC(CSCCCCNCc2cccc(-c3ccc(Cl)cc3)c2)C(O)C1O (stereo not shown) [SGC8158]
PRMT7 inhibition (PRMT7 [4]): selectively inhibits PRMT7; also recorded: selective PRMT7 inhibition; also recorded: selective PRMT7 inhibitor

SMILES: CC(C)N(CCCNC(=O)Nc1ccc(C(C)(C)C)cc1)C[C@H]1O[C@@H](n2ccc3c(N)ncnc32)[C@H](O)[C@@H]1O [EPZ004777]
selectivity for DOT1L (DOT1L): high selectivity

IC50 (PRMT3 [5]): 321 nM
IC50 (PRMT3 [6]): 2.2 ± 0.29 µM
IC50 (PRMT4 [7]): 5.05 nM
inhibition at 10 µM (PRMT8): 100%
IC50 (PRMT7 [8]): 555 nM
inhibition at 10 µM (PRMT1 [1]): 94%
IC50 (PRMT1 [1]; read-out: IC50[μM] | PRMT1): 0.08 ± 0.016 µM
inhibition at 10 µM (PRMT4 [2]): 100%
inhibition at 10 µM (PRMT6): 100%
inhibition at 10 µM (PRMT3 [3]): 68%
SMILES: N=C(NCCCSC[C@H]1O[C@@H](n2cnc3c(N)ncnc32)[C@H](O)[C@@H]1O)Nc1cccc(Br)c1 [Compound 5f]
inhibition of all PRMTs (PRMTs): broad and potent inhibition to all PRMTs

SMILES: C[S+](CC[C@H](N)C(=O)O)C[C@H]1O[C@@H](n2cnc3c(N)ncnc32)[C@H](O)[C@@H]1O (stereo partly drawn) [SAM, S-adenosyl-L-methionine, reference compound]
ΔTm PRMT1 (PRMT1 [9]): +1.6 °C
ΔTm PRMT3 (PRMT3 [10]): +1.1 °C
ΔTm PRMT4 (PRMT4 [11]): +1.9 °C
